These results are taken from publication PMC12737277, “Ecotoxicity of Nitrated Monoaromatic Hydrocarbons in Aquatic Systems: Emerging Risks from Atmospheric Deposition of Biomass Burning and Anthropogenic Aerosols” (Toxics, 2025).

As a reminder, the IC50 is the concentration that inhibits the measured activity by half.

Molecules are shown by their SMILES. Like-named read-outs stand apart in the source and are kept apart here.

One test has as its target T1, Oct1 (Danio rerio, UniProt A0A8N1Z2B5).
T1 construct: gene slc22a2; full-length transporter stably expressed in Flp-In-293 cells (Flp-In-293-drOct1)
T1 sequence (A0A8N1Z2B5 1-562): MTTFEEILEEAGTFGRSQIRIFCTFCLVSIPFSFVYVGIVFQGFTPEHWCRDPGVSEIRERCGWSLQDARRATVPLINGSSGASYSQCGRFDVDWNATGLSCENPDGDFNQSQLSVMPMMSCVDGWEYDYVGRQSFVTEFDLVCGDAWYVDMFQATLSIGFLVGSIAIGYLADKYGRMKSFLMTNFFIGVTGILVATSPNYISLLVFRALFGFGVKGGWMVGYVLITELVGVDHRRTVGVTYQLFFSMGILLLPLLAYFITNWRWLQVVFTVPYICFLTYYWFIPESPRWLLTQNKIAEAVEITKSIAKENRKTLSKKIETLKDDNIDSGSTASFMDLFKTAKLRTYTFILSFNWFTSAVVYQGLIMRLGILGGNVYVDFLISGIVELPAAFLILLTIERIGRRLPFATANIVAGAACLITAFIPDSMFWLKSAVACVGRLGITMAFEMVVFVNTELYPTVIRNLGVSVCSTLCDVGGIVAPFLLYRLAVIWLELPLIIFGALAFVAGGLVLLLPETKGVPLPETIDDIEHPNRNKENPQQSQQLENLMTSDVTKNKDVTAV
The experiment in a line: inhibition of ASP+ uptake in transfected cells, fluorescence. It is filed as cell-based. The conditions noted are these: 0.5 µM ASP+, mock cells subtracted.

The next test addresses T2, Oatp1d1 (Danio rerio, UniProt A0A8M9PU70).
T2 construct: gene slco1d1; full-length transporter stably expressed in Flp-In-293 cells (Flp-In-293-drOatp1d1)
T2 sequence (A0A8M9PU70 1-689): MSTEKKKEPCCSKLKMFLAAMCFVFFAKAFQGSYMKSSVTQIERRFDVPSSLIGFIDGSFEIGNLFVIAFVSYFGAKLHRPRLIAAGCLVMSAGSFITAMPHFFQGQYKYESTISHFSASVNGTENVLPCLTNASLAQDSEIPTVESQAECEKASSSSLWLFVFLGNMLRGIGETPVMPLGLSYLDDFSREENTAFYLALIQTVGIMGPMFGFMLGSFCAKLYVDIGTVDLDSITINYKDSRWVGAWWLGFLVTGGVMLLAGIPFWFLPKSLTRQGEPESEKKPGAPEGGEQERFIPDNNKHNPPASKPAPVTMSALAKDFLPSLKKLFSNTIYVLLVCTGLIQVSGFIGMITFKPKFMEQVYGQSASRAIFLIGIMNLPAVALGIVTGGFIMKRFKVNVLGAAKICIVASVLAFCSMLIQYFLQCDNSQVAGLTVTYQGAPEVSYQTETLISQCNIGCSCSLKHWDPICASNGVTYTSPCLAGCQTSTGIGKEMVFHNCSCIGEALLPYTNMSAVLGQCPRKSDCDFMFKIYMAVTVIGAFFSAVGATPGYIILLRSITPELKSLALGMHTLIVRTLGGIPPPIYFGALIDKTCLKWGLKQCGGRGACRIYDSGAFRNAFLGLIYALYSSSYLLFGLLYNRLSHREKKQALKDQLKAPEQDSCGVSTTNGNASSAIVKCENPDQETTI
The experiment in a line: inhibition of Lucifer yellow uptake in transfected cells, fluorescence. It is filed as cell-based.

[1] abbreviates: 50 µM Lucifer yellow, mock cells subtracted.

In the case of `O=C(O)c1cccc([N+](=O)[O-])c1O` [3NSA], the IC50 on Oct1 (read-out: IC50 (converted)) is 496 µM; against Oatp1d1 (setting [1]), “all compounds except 4NP showed interaction with LY uptake”.

For the compound `Cc1cc([N+](=O)[O-])cc(O)c1O` [3M5NC], the IC50 entry against Oct1 is “particularly 3M5NC, 3M4NC, and 4NC, exhibited the strongest interactions with Oct1”; against Oatp1d1 (setting [1]), “all compounds except 4NP showed interaction with LY uptake”. Regarding `O=C(O)c1cc([N+](=O)[O-])ccc1O` [5NSA], the IC50 on Oct1 (read-out: IC50 (converted)) was 529 µM; on Oatp1d1 (read-out: IC50 (converted)) it was 14.2 µM.

Take `COc1cc([N+](=O)[O-])cc(OC)c1O` [4NS]: the IC50 result is recorded as “All tested NMAHs interfered with ASP+ uptake via Oct1” against Oct1 and “all compounds except 4NP showed interaction with LY uptake” on Oatp1d1 (setting [1]). Turning to `O=[N+]([O-])c1ccc(O)cc1` [4NP], on Oatp1d1 (read-out: IC50 (converted)), the IC50 is greater than 719 µM. For `Cc1c([N+](=O)[O-])ccc(O)c1O` [3M4NC], the IC50 entry on Oct1 is “particularly 3M5NC, 3M4NC, and 4NC, exhibited the strongest interactions with Oct1”; against Oatp1d1 (setting [1]), “all compounds except 4NP showed interaction with LY uptake”. On to `O=[N+]([O-])c1ccc(O)c(O)c1` [4NC], for which the IC50 entry is “particularly 3M5NC, 3M4NC, and 4NC, exhibited the strongest interactions with Oct1” against Oct1; “all compounds except 4NP showed interaction with LY uptake” at Oatp1d1 (setting [1]).
